# Like-named read-outs stand apart in the source and are kept apart here.
# Tests used:
# HIV-1 pseudovirus = HIV-1 pseudovirus infection test (antiviral activity, luciferase); format: cell-based
# Description: (§1) • Virus: The HIV-1 pseudovirus used in this experiment was a replication deficient virus, which is constructed by WuXi AppTec. • HEK 293T cell line was purchased from ATCC, and Item No. is CRL-11268. Cells were cultured in DMEM medium with 10% fetal bovine serum and 1% double antibody. • Reagents
# (§2) On the first day, HEK 293T cells were inoculated into a 96 well test plate at the density of 55000 cells per well and […] per well, and incubated overnight in a 5% CO2 and 37° C. incubator.
# (§3) On the second day, the tested compounds (compounds provided in the example of the present invention) and the control compounds were diluted 4-fold with cell culture medium for a total of 8 concentration points, and 50 μL diluted compounds were added to each well, and each well was performed duplicate.
# Subsequently, the HIV-1 pseudovirus was diluted to 100 TCID50/50 μL with cell culture medium, and 50 μL diluted virus was added to each well.
# (§4) Cell Control (cells, no compound treatment or virus infection) and virus control (cells infected with virus, no compound treatment) were set up. The final initial test concentration of the tested compounds and control compounds was 1000 nM (Table 1), and the amount of virus infection was 100 TCID50 per well. The total volume of cell culture medium was 200 μL per well, and the final concentration of DMSO in the culture medium was 0.5%.
# (§5) The cells were cultured in a 5% CO2 and 37° C. incubator for additional 3 days.
# On the fifth day, in the antiviral activity test plates, 100 μL cell supernatant was sucked away from each well, 100 μL 2X luciferase reporter gene assay reagent Britellite plus was added in dark. The luciferase activity in each well of the test plates was detected by Envision. The data was used for sample antiviral activity analysis.
# (§6) Dose-response curve was drawn through GraphPad Prism software. The calculation equations for antiviral activity (% Inhibition) and cell viability (% cell viability) were as follow:
# (§7) The values of EC50 and CC50 were analyzed by GraphPad Prism (version 5) software, and nonlinear fitting analysis was used for inhibitory activity and cell viability of the compounds, and the fitting method was “log (inhibitor) vs. response—Variable slope”.
# (§8) 3. The HIV-1 pseudovirus experiment was applied to determinate the in vitro antiviral activity and cytotoxicity of the tested compound on HEK 293T cells, and the experimental results were shown in the table below.
# [1] = Cytotoxicity test (cell viability, CellTier Glo); format: cell-based; details: human
# Description: as §1, §2, §3, §4, §5
# (§9) On the fifth day, in the cytotoxicity test plates, 100 μL cell supernatant were sucked from each well, 100 μL cell viability assay reagent CellTier Gloin was added in dark. Cell viability in each well was detected by BioTek enzyme-linked immunosorbent assay reader, and the data was used for sample cytotoxicity analysis.
# as §6, §7, §8
# [2] = Oil-water partition coefficient (n-octanol / pH 7.4 phosphate buffer); format: physicochemical
# Description: • a) To a 5 mL glass bottle was added 1 mL n-octanol and 1 mL pH 7.4 phosphate buffer, respectively. • b) The compound was added to a DMSO solution to prepare a compound stock solution with a concentration of 10 mM, and then 20 μL compound stock solution was added to the mixture solution of n-octanol and phosphate buffer. • c) Shaken at room temperature for 1 hour at a rate of 300/minute. • d) Kept for 30 minutes, and after the solution was completely layered, the upper and lower layers of the solution were taken separately to a 96 well deep well plate, and LC-MS/MS was used for detection via injection. • e) The aliquots of 1-octanol and aqueous solution were diluted consecutively with DMSO to obtain the final sample for LC-MS/MS analysis. Three consecutive dilutions were carried on every 1-octanol phase with covering a concentration range of 2500 fold. Every final aqueous phase was diluted consecutively twice with covering a concentration range of 100 fold. The MS peak areas of these solutions were used to generate log (peak area) based on the log (relative concentration) calibration line.
# [formula] • Coct=sample concentration in n-octanol • Caq=sample concentration in pH 7.4 phosphate buffer
# [3] = PK test of compounds (mouse); format: in vivo, ICR mice; details: for bioavailability (in words): PK test in mice; for half-life / bioavailability: male, mouse, plasma, ICR mice; for half-life: PO 10 mg/kg; for bioavailability: PO 10 mg/kg (IV 2 mg/kg)
# Description: The mice were not fed until 5 pm on the day before administration, and fasted overnight with water. The mice in Group IV were administered with 2 mg/kg, while those in Group PO were administered with 10 mg/kg. Feeding was resumed 2 hours after administration. For mice administered by gavage, 20 μL blood was collected from the saphenous vein in calf before administration and 0.25, 0.5, 1, 2, 4, 8, and 24 hours after administration, respectively, and placed in EDTA-K2 anticoagulant blood collection tubes, and then the blood would be placed on ice until centrifuged to obtain plasma samples. The plasma samples were centrifuged at 4° C. (3500 rpm, 10 min), and after separation, the samples were transferred to EP tubes and stored at −80° C. for detection. For mice admistrated by intravenous injection, 20 μL blood was collected from the saphenous vein in calf before administration and 0.0833, 0.25, 0.5, 1, 2, 4, 8 and 24 hours after administration, respectively, and placed in EDTA-K2 anticoagulant blood collection tubes, and then the blood would be placed on ice until centrifuged to obtain a plasma sample. The plasma samples were centrifuged at 4° C. (3500 rpm, 10 min), and after separation, the samples were transferred to EP tubes and stored at −80° C. for detection. The level of tested compounds in blood plasma of mice, who had orally administrated with different concentrations of drugs were determinated: 10 μL mouse blood at each time point after administration was taken, 100 μL methanol containing an internal standard (100 ng/mL) was added, vortex mixed for 1 minute, centrifuged at 4° C. (12000 rmp, 5 minutes), and 1 μL supernatant was taken from the plasma samples for LC-MS/MS analysis.
# HIV-1 integrase = HIV-1 integrase (Human immunodeficiency virus type 1 group M subtype B, UniProt P04585); assay: Integrase activity test (HIV-1 Integrase Assay Kit EZ-1700)
# Description: A non-radioactive assay method, an integrase assay kit, was used to measure integrase activity quantitatively.
# Each component was prepared according to the instructions of the kit; preparation of test sample, 5 mM DMSO solution was prepared for backup, working solution was prepared according to the initial final concentration determined at the time of method establishment, with a 4-fold gradient dilution and 10 concentrations.
# • (1) The working solution of sample was prepared according to the initial concentration determinated during the methodology establishment process; • (2) Reagents were prepared according to the methods provided in the kit; • (3) DS DNA coating—blocking—addition of integrase solution—addition of sample—addition of TS DNA—addition of HRP antibody-addition of TMB peroxidase substrate—TMB termination reaction-detection of light absorption value at 450 nm.
# The software Graphpad Prism 8.0 was applied and the calculation equation of Log (inhibitor) vs. response variable slope was used to fit the IC50 curve.
# HEK 293T cells = assay: Cytotoxicity test (cell viability, CellTier Glo); format: cell-based; details: HEK 293T cells, highest test concentration 1000 nM
# Description: as §1, §2, §3, §4, §5, §9, §6, §7, §8
# [4] = Human immunodeficiency virus 1, HEK-293T, 72 h
# [5] = n-octanol / pH 7.4 phosphate buffer, pH 7.4, read-out: Log D (pH 7.4)
# [6] = HIV-1 pseudovirus, HEK 293T cells, 3 days, luciferase, read-out: EC50
compound,measurement,setting,value
C[C@@H]1CC2(CCCCC2)O[C@H]2Cn3cc(C(=O)NCc4ccc(F)cc4F)c(=O)c(O)c3C(=O)N12 [Compound 8],EC50,HIV-1 pseudovirus; [4],13.7 nM
same,CC50 at 3 days,[1],> 1000 nM
C[C@H]1N2C(=O)c3c(O)c(=O)c(C(=O)NCc4ccc(F)cc4F)cn3C[C@@H]2OCC12CCCC2 [Compound 3],EC50,HIV-1 pseudovirus; [4],5.63 nM
same,CC50 at 3 days,[1],> 1000 nM
C[C@H]1N2C(=O)c3c(O)c(=O)c(C(=O)NCc4ccc(F)cc4F)cn3C[C@@H]2OCC12CCC2 [Compound 2],EC50,HIV-1 pseudovirus; [4],1.19 nM
same,logD,[2]; [5],2.5
same,CC50 at 3 days,[1],> 1000 nM
same,bioavailability (in words),[3],good bioavailability
same,half-life,[3],1.94 ± 0.04 h
same,bioavailability,[3],50.8%
C[C@H]1N2C(=O)c3c(O)c(=O)c(C(=O)NCc4ccc(F)cc4F)cn3C[C@@H]2OCC12CCCCC2 [Compound 4],EC50,HIV-1 pseudovirus; [4],5.83 nM
same,CC50 at 3 days,[1],> 1000 nM
C[C@@H]1CC2(CC2)O[C@H]2Cn3cc(C(=O)NCc4ccc(F)cc4F)c(=O)c(O)c3C(=O)N12 [Compound 6],EC50,HIV-1 pseudovirus; [4],3.03 nM
same,logD,[2]; [5],2
same,CC50 at 3 days,[1],> 1000 nM
same,bioavailability (in words),[3],good bioavailability
same,half-life,[3],2.68 ± 0.66 h
same,bioavailability,[3],42.5%
"Cc1nnc(C(=O)NC(C)(C)c2nc(C(=O)NCc3ccc(F)cc3)c(O)c(=O)n2C)o1 [RAL, Raltegravir, reference compound]",antiviral activity against HIV-1 pseudovirus (in words),HIV-1 pseudovirus; HEK 293T cells,have antiviral activity
same,EC50,HIV-1 pseudovirus; [4],3.42 nM
same,CC50 at 3 days,"[1]; HEK 293T cells, highest test concentration 1000 nM, read-out: CC50",> 1000 nM
C[C@H]1N2C(=O)c3c(O)c(=O)c(C(=O)NCc4ccc(F)cc4F)cn3C[C@@H]2OC12CCCCC2 [Compound 12],EC50,HIV-1 pseudovirus; [4],4.93 nM
same,CC50 at 3 days,[1],> 1000 nM
"O=C(NCc1c(F)cc(F)cc1F)c1cn2c(c(O)c1=O)C(=O)N1[C@H]3CC[C@H](C3)O[C@@H]1C2 [BIC, Bictegravir, reference compound]",IC50,HIV-1 integrase,21.2 nM
"(R)—N-(2,4-difluorophenyl)-7′-hydroxy-6′,8′-dioxo-2′,3′,6′,8′,12′,12a′-hexahydrospiro[cyclopropane-1,4′-pyridino[1′,2′:4,5]pyrazine[2,1-b][1,3]oxazine]-9′-formamide [Compound 15]",EC50,HIV-1 pseudovirus; [6],14 nM
same,CC50,HEK 293T cells,> 1000 nM
"(R)—N-(2,4-difluorophenyl)-6′-hydroxy-5′,7′-dioxo-5′,7′,11′,11a′-tetrahydro-2′H-spiro[cyclopropane-1,3′-oxazole[3,2-a]pyridino[1,2-d]pyrazine]-8′-formamide [Compound 18]",EC50,HIV-1 pseudovirus; [6],3.34 nM
same,CC50,HEK 293T cells,> 1000 nM
C[C@H]1N2C(=O)c3c(O)c(=O)c(C(=O)NCc4ccc(F)cc4F)cn3C[C@@H]2OC12CC2 [Compound 10],EC50,HIV-1 pseudovirus; [4],2.7 nM
same,logD,[2]; [5],1.9
same,CC50 at 3 days,[1],> 1000 nM
same,bioavailability (in words),[3],good bioavailability
same,half-life,[3],1.53 ± 1.06 h
same,bioavailability,[3],32.9%
"O=C(NCc1ccc(F)cc1F)c1cn2c(c(O)c1=O)C(=O)N1C(C2)OCCC12CC2 (racemic) [Compound 13, (2,4-difluorophenyl)-7′-hydroxy-6′,8′-dioxo-2′,3′,6′,8′,12′,12a′-hexahydrospiro[cyclopropane-1,4′-pyridino[1′,2′:4,5]pyrazine[2,1-b][1,3]oxazine]-9′-formamide]",EC50,HIV-1 pseudovirus; [4],1.05 nM
same,logD,[2]; pH 7.4,1.5
same,CC50 at 3 days,[1],> 1000 nM
"C[C@@H]1CCO[C@H]2Cn3cc(C(=O)NCc4ccc(F)cc4F)c(=O)c(O)c3C(=O)N12 [DTG, Dolutegravir, reference compound]",antiviral activity against HIV-1 pseudovirus (in words),HIV-1 pseudovirus; HEK 293T cells,have antiviral activity
same,EC50,HIV-1 pseudovirus; [4],1.49 nM
same,logD,[2]; [5],1.6
same,CC50 at 3 days,[1],> 1000 nM
same,half-life,[3],3.7 ± 0.09 h
same,bioavailability,[3],46%
"(S)—N-(2,4-difluorophenyl)-7′-hydroxy-6′,8′-dioxo-2′,3′,6′,8′,12′,12a′-hexahydrospiro[cyclopropane-1,4′-pyridino[1′,2′:4,5]pyrazine[2,1-b][1,3]oxazine]-9′-formamide [Compound 14]",EC50,HIV-1 pseudovirus; [6],8.72 nM
same,CC50,HEK 293T cells,> 1000 nM
O=C(NCc1ccc(F)cc1F)c1cn2c(c(O)c1=O)C(=O)N1C(C2)OCC12CC2 (racemic) [Compound 16],EC50,HIV-1 pseudovirus; [4],1.11 nM
same,logD,[2]; pH 7.4,1.8
same,CC50 at 3 days,[1],> 1000 nM
C[C@@H]1CC2(CCCC2)O[C@H]2Cn3cc(C(=O)NCc4ccc(F)cc4F)c(=O)c(O)c3C(=O)N12 [Compound 7],EC50,HIV-1 pseudovirus; [4],11.6 nM
same,CC50 at 3 days,[1],> 1000 nM
C[C@@H]1CC2(CCOCC2)O[C@H]2Cn3cc(C(=O)NCc4ccc(F)cc4F)c(=O)c(O)c3C(=O)N12 [Compound 9],EC50,HIV-1 pseudovirus; [4],5.09 nM
same,CC50 at 3 days,[1],> 1000 nM
"(S)—N-(2,4-difluorophenyl)-6′-hydroxy-5′,7′-dioxo-5′,7′,11′,11a′-tetrahydro-2′H-spiro[cyclopropane-1,3′-oxazole[3,2-a]pyridino[1,2-d]pyrazine]-8′-formamide [Compound 17]",EC50,HIV-1 pseudovirus; [6],3.73 nM
same,CC50,HEK 293T cells,> 1000 nM
"C[C@]12CC[C@H]3[C@@H](CCC4=CC(=O)CC[C@@]43C)[C@@H]1CC[C@@H]2O [Testosterone, reference compound]",logD,"[2]; n-octanol / pH 7.4 phosphate buffer, read-out: Log D (pH 7.4)",2.85
C[C@H]1N2C(=O)c3c(O)c(=O)c(C(=O)NCc4ccc(F)cc4F)cn3C[C@@H]2OCC12CCOCC2 [Compound 5],EC50,HIV-1 pseudovirus; [4],4.45 nM
same,CC50 at 3 days,[1],> 1000 nM
